This note sets out measurements from US4708954A, “Hypogylcemic oxaluric acid derivatives” (Nippon Zoki Pharmaceutical Co., Ltd., priority 1985, dated 1987).

The term inhibition in vivo denotes the percentage by which the read-out fell short of the control. Higher therefore signals a strong effect. The LD50 is the dose expected to kill half of the subjects tested. A high value points to a less toxic substance.

The test system of one data set is Wistar-strain male rats. Description: Hypoglycemic effect (blood glucose level in fasted, glucose-loaded rats). To be noted: 100 mg/kg oral, 2 hours later; for Blood Glucose Level: fasted rats with s.c. 20% glucose 0.5 ml/100 g, control 139 ± 3; for inhibition in vivo at 100 mg/kg: Rattus norvegicus, decrease vs control (139 ± 3 mg/dl). The format is in vivo. As for the experimental part:
Groups of 7 Wistar-strain male rats (weighing about 200 g) which were fasted for 20 hours were used for measurement of the hypoglycemic effect according to the modified method by Dulin et al. [Dulin, W. L. et al., Proc. Soc. Expl. Med., 107, 245 (1961)]. That is, 0.5 ml/100 g of 20% aqueous solution of glucose was subcutaneously administered to the backs of rats to prevent a decrease in blood glucose level because of the fasting. […] The obtained blood sample was allowed to stand for 30 minutes to complete the coagulation and was centrifuged to obtain the serum. Blood sugar level was measured according to the mutalotase GOD method [Trinder, Ann. Clin. Biochem., 6, 24 (1979)].

The nature of data set [1]: Acute toxicity test (oral, lethal dose by deaths over 7 days). To be noted: mouse, in vivo, suspended in 0.5% aqueous C.M.C., fasted 20 hours, deaths for 7 days. As for the experimental part: The test compounds of the present invention suspended in 0.5% aqueous solution of carboxymethylcellulose (C.M.C.) were orally administered to groups of 4 to 6 ddY-strain male mice (weighing about 19 g) which had fasten for 20 hours. The lethal dose was determined by the number of deaths for 7 days thereafter.

Structures can show the parent of a compound that is named as a salt. A value given as a limit tells only on which side of the number the result lay.

On to `CCCCNC(=O)NC(=O)C(=O)O` [compound 3, 5-butyloxaluric acid], for which, in the data set with Wistar-strain male rats, the “Blood Glucose Level” value worked out at 103 ± 5 mg/dL and the inhibition in vivo at 100 mg/kg stood at 26%.
The matching figures for `CNC(=O)NC(=O)C(=O)OCC(C)C` [compound 21, 5-methyloxaluric acid iso-butyl ester]: 115 ± 4 mg/dL and 17.3%.
As for `CCOC(=O)C(=O)NC(=O)NCC(C)C` [compound 14, 5-iso-butyloxaluric acid ethyl ester], in the data set on Wistar-strain male rats, the “Blood Glucose Level” value came to 93 ± 2 mg/dL and at 100 mg/kg the inhibition in vivo was 33.1%.
`CCNC(=O)NC(=O)C(=O)O` [compound 2, 5-ethyloxaluric acid ammonium salt] displayed an LD50 at 168 h in data set [1] of 3000 to 4000 mg/kg. Also, in the data set with Wistar-strain male rats, the “Blood Glucose Level” value is 102 ± 4 mg/dL and the inhibition in vivo at 100 mg/kg is 26.6%.
For `CCOC(=O)C(=O)NC(=O)NC` [compound 12, 5-methyloxaluric acid ethyl ester], in the data set with Wistar-strain male rats, the “Blood Glucose Level” value was 81 ± 5 mg/dL and the inhibition in vivo at 100 mg/kg amounted to 41.7%.
Turning to `CNC(=O)NC(=O)C(=O)O` [compound 1, 5-methyloxaluric acid ammonium salt], in the data set on Wistar-strain male rats, the “Blood Glucose Level” value amounted to 104 ± 7 mg/dL and at 100 mg/kg the inhibition in vivo was 25.2%.
The matching figures for `CCCCNC(=O)NS(=O)(=O)c1ccc(C)cc1` [Tolubutamide, reference compound]: 50 ± 1 mg/dL and 64%.
In data set [1], `CCCCOC(=O)C(=O)NC(=O)NC` [compound 20, 5-methyloxaluric acid butyl ester] yielded an LD50 at 168 h greater than 4000 mg/kg. Besides, in the data set on Wistar-strain male rats, the “Blood Glucose Level” value was found to be 101 ± 6 mg/dL and testing at 100 mg/kg gave an inhibition in vivo of 27.3%.
In data set [1], `CCCCNC(=O)NC(=O)C(=O)OC` [compound 13, 5-butyloxaluric acid methyl ester] showed an LD50 at 168 h of 1000 to 2000 mg/kg. Besides, in the data set with Wistar-strain male rats, the “Blood Glucose Level” value amounted to 88 ± 3 mg/dL and testing at 100 mg/kg gave an inhibition in vivo of 36.7%.
On to `CCCCCCCCOC(=O)C(=O)NC(=O)NC` [compound 22, 5-methyloxaluric acid octyl ester], for which, in the data set on Wistar-strain male rats, the “Blood Glucose Level” value was determined as 122 ± 2 mg/dL and the inhibition in vivo at 100 mg/kg was 12.2%.
